Measurements published in PubChem BioAssay (NCI).
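Tested at 5 concentrations; 48 h exposure; 96-well plates; endpoints linearly interpolated, else capped at highest concentration. GI50 = concentration required for 50% inhibition of growth. TGI denotes the concentration required for complete inhibition of growth.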

Assays:
Test in all cases: NCI anticancer screen, dose series, 48 h
[1] = system: MCF7 breast
[2] = system: OVCAR-4 ovarian
[3] = system: SK-MEL-2 melanoma
[4] = system: HOP-62 NSCLC
[5] = system: HT29 colon
[6] = system: UACC-257 melanoma
[7] = system: EKVX NSCLC
[8] = system: HS 578T breast
[9] = system: A498 renal
[10] = system: RXF 393 renal

In the case of `CN(C)CC1CCC(CN(C)C)C1=O` (configuration not stated), the TGI [1] is reported as 1.8 µM, the TGI [2] is reported as 15.8 µM and the TGI [3] is reported as 21.6 µM. For the same compound, the TGI [4] was > 68 µM, the TGI [5] was 16.2 µM and the TGI [6] was 17.6 µM. For the same compound, the TGI [7] was 11 µM, the TGI [8] was 10.2 µM and the TGI [9] was > 58.9 µM. It also gave a TGI [10] of 9.68 µM.

Work on `CCCCCCCCCc1nn2c(Cc3ccccc3)nnc2s1` yielded a TGI [1] of 73.6 µM, a TGI [2] of 54.6 µM and a TGI [3] of 39.3 µM. It also gave a TGI [4] of 39.6 µM, a TGI [6] of 54.1 µM and a TGI [7] of 29.6 µM. For the same compound, the TGI [8] was 38.5 µM, the TGI [9] was 34.2 µM and the TGI [10] was 38.3 µM.

In the case of `S=c1cc(-c2ccc3c(c2)OCO3)s[nH]1`, the TGI [1] is reported as > 100 µM, the TGI [2] is reported as > 100 µM and the TGI [3] is reported as > 100 µM. The TGI [4] was > 100 µM, the TGI [5] was > 100 µM and the TGI [6] was > 100 µM. For the same compound, the TGI [7] was > 100 µM, the TGI [8] was > 100 µM and the TGI [9] was > 100 µM. The TGI [10] was > 100 µM.

With `C[n+]1c(-c2ccc(/C=C/C=N\NC(=O)c3ccc(C(=O)N/N=C\C=C\c4ccc(-c5cn6ccccc6[n+]5C)cc4)cc3)cc2)cn2ccccc21` the TGI [1] was > 100 µM, the TGI [2] was > 100 µM and the TGI [3] was > 100 µM. The TGI [4] was > 100 µM, the TGI [5] was > 100 µM and the TGI [6] was > 100 µM. The TGI [7] was > 100 µM, the TGI [8] was > 100 µM and the TGI [9] was > 100 µM. The TGI [10] was > 100 µM.

With `CCOC(=O)c1nc2cc(C(F)(F)F)ccc2nc1Nc1ccc(C(=O)NC(C(=O)OCC)C(=O)OCC)cc1` the TGI [1] was 57.2 µM, the TGI [2] was 33.1 µM and the TGI [3] was > 100 µM. For the same compound, the TGI [4] was 41 µM, the TGI [5] was > 100 µM and the TGI [6] was 51.9 µM. For the same compound, the TGI [7] was 66.2 µM, the TGI [8] was 37.5 µM and the TGI [9] was 50.3 µM. The TGI [10] was 28.8 µM.

For `COc1cc(/C=C/C=C2\CC/C(=C\C=C\c3ccc(O)c(OC)c3)C2=O)ccc1O`, the TGI [1] was > 100 µM, the TGI [2] was > 100 µM and the TGI [3] was > 100 µM. The TGI [4] was > 100 µM, the TGI [5] was > 100 µM and the TGI [6] was > 100 µM. The TGI [7] was > 100 µM, the TGI [8] was > 100 µM and the TGI [9] was > 100 µM. The TGI [10] was 77.7 µM.

With `O=C1CSC2=NC3=C(COC/C3=C\c3ccc(Br)cc3)C(c3ccc(Br)cc3)N12` (configuration not stated) the TGI [1] was > 100 µM, the TGI [2] was > 100 µM and the TGI [3] was > 100 µM. For the same compound, the TGI [4] was > 100 µM, the TGI [6] was > 100 µM and the TGI [7] was > 100 µM. For the same compound, the TGI [8] was > 100 µM, the TGI [9] was > 100 µM and the TGI [10] was > 100 µM.

With `Cc1ccc(/C=C2\Cc3c(C)cc(C)cc3C2=O)c(C(=O)O)c1` the TGI [1] was > 100 µM, the TGI [2] was > 100 µM and the TGI [3] was 83.6 µM. For the same compound, the TGI [4] was > 100 µM, the TGI [5] was > 100 µM and the TGI [6] was > 100 µM. The TGI [7] was > 100 µM, the TGI [8] was > 100 µM and the TGI [9] was 84.1 µM. It also gave a TGI [10] of 88.6 µM.

`CC(=O)c1ccc2c(c1)CC1(C2)Cc2ccccc2C1=O` (configuration not stated) was tested, and the TGI [1] was > 100 µM, the TGI [2] was > 100 µM and the TGI [3] was > 100 µM. For the same compound, the TGI [4] was > 100 µM, the TGI [5] was 43.8 µM and the TGI [6] was 50.8 µM. The TGI [7] was > 100 µM, the TGI [8] was > 100 µM and the TGI [9] was > 100 µM. For the same compound, the TGI [10] was > 100 µM.

`COC(=O)c1cc(C#N)[nH]c1-c1cc(Br)cs1` was tested, and the TGI [1] was 33.7 µM, the TGI [2] was > 57.7 µM and the TGI [3] was 35.2 µM. It also gave a TGI [4] of 29.9 µM, a TGI [5] of 31.7 µM and a TGI [6] of 28.9 µM. The TGI [7] was 47.6 µM, the TGI [8] was 45.4 µM and the TGI [9] was 18.4 µM. It also gave a TGI [10] of 23 µM.

`Oc1[nH]c2ccccc2c1N=NC(=S)Nc1ccc(Cl)cc1` was tested, and the TGI [1] was > 100 µM, the TGI [2] was > 100 µM and the TGI [3] was > 100 µM. For the same compound, the TGI [4] was > 100 µM, the TGI [5] was > 100 µM and the TGI [6] was > 100 µM. For the same compound, the TGI [7] was > 100 µM, the TGI [8] was > 100 µM and the TGI [9] was 63 µM. For the same compound, the TGI [10] was > 100 µM.

`C[C@]12CC[C@@H]3c4cc(I)c(O)cc4CC[C@H]3[C@@H]1CC[C@@H]2O` showed a TGI [1] of 21.1 µM, a TGI [2] of 39.3 µM and a TGI [3] of 13.7 µM. For the same compound, the GI50 [4] was 4.22 µM, the TGI [4] was 17.3 µM and the TGI [5] was 34.3 µM. It also gave a TGI [6] of 23.5 µM, a TGI [7] of 15.6 µM and a TGI [8] of 8.6 µM. It also gave a TGI [9] of 24.3 µM and a TGI [10] of 20.1 µM.

For `COc1ccc(N(C(=O)Nc2ccc(Cl)c(Cl)c2)C2c3cccn3C(=O)N2c2ccc(Cl)c(Cl)c2)cc1` (configuration not stated), the TGI [1] was > 100 µM, the TGI [2] was > 100 µM and the TGI [3] was > 100 µM. The TGI [5] was > 100 µM, the TGI [6] was > 100 µM and the TGI [7] was > 100 µM. The TGI [8] was > 100 µM, the TGI [9] was > 100 µM and the TGI [10] was > 100 µM.

`CC(C(=O)O)C(C)(O)C(=O)O` (configuration not stated) was tested, and the TGI [1] was > 100 µM, the TGI [2] was > 100 µM and the TGI [3] was > 100 µM. For the same compound, the TGI [5] was > 100 µM, the TGI [6] was > 100 µM and the TGI [7] was > 100 µM. For the same compound, the TGI [8] was > 100 µM, the TGI [9] was > 100 µM and the TGI [10] was > 100 µM.

`COc1ccc(CN2C3CC2CN(c2ccc(-c4cc(OCC(C)(C)O)cn5ncc(C#N)c45)cn2)C3)cn1` was tested, and the GI50 [1] was 6.06 µM, the TGI [1] was > 100 µM and the GI50 [2] was 3.63 µM. The TGI [2] was > 100 µM, the GI50 [3] was > 100 µM and the TGI [3] was > 100 µM. It also gave a GI50 [4] of 4.72 µM, a TGI [4] of 47.6 µM and a GI50 [5] of 8.09 µM. For the same compound, the TGI [5] was > 100 µM, the GI50 [6] was > 100 µM and the TGI [6] was > 100 µM. The GI50 [7] was 6.9 µM, the TGI [7] was > 100 µM and the GI50 [8] was 2.01 µM. The TGI [8] was 7.12 µM, the GI50 [9] was 0.51 µM and the TGI [9] was 3.7 µM. For the same compound, the GI50 [10] was 2.18 µM and the TGI [10] was 9.45 µM.

For `COc1nc(C#CC(C)(C)C)nc(OC)n1`, the TGI [1] was 89.5 µM, the TGI [2] was 35.5 µM and the TGI [3] was > 100 µM. The TGI [4] was > 100 µM, the TGI [5] was > 100 µM and the TGI [6] was > 100 µM. For the same compound, the TGI [7] was > 100 µM, the TGI [8] was 91.8 µM and the TGI [9] was > 100 µM. The TGI [10] was > 100 µM.

For `CC(C)OC(=O)OCSc1ccccc1N=Cc1cccc([N+](=O)[O-])c1`, the TGI [1] was > 10 µM, the TGI [2] was > 10 µM and the TGI [3] was > 10 µM. For the same compound, the TGI [4] was > 10 µM, the TGI [5] was > 10 µM and the TGI [6] was > 10 µM. The TGI [7] was > 10 µM, the TGI [8] was > 10 µM and the TGI [9] was > 10 µM. The TGI [10] was > 10 µM.

For `COc1cc2ccc1OCc1cccc(n1)COc1ccc(cc1OC)C=Nc1ccc(cc1)N=C2`, the TGI [1] was > 100 µM, the TGI [2] was > 100 µM and the TGI [3] was > 100 µM. For the same compound, the TGI [4] was > 100 µM, the TGI [5] was > 100 µM and the TGI [6] was > 100 µM. For the same compound, the TGI [7] was > 100 µM, the TGI [8] was > 100 µM and the TGI [9] was > 100 µM. The TGI [10] was > 100 µM.
